Conditions: acidic group
`O=C1CSCC(=O)C1` gave a pKa of 4.34.
`O=C(O)[C@@H]1O[C@H](Oc2c[nH+]c3ccccc3c2)[C@@H](O)[C@H](O)[C@H]1O` showed a pKa of 3.
`Oc1ccc(O)c(Cl)c1` gave a pKa of 8.81.
With `O=C([O-])c1ccc(NS(=O)(=O)c2ccccc2)cc1` the pKa was 7.75.
With `CO` the pKa was 15.5.
`Cc1cnnc2c(O)cccc12` showed a pKa of 8.34.
Work on `COc1ccc(NC(=S)c2ccc(Cl)cc2)cc1` yielded a pKa of 11.3.
`CCC/C=C/C(=O)O` showed a pKa of 4.71.
With `COc1cccc(-c2nnn[nH]2)c1` the pKa was 3.91.
With `CC(O)[C@@H]1C[C@H](CC(=O)O)C1(C)C` (stereo not given in full) the pKa was 4.83.
`[NH3+]CCC[SeH]` gave a pKa of 6.27.
`Cc1c(Cl)ccc2c1nnn2O` showed a pKa of 4.09.
`O=C(O)C[Se]c1ccc([N+](=O)[O-])cc1` gave a pKa of 3.46.
With `Cc1nnc(C)n1N` the pKa was 9.85.
For `O=C(O)C1(C(=O)O)CC1`, the pKa was 1.92.
Compound `CCSC(C)(O)O` has a pKa of 12.1.
For `C[n+]1cccc(S)c1`, the pKa was 2.27.
`OCCO` gave a pKa of 14.
`O=C([O-])[C@@H](P)CC[C@H](P)C(=O)O` showed a pKa of 4.41.
`CCOC(=O)/C(=N\O)C(C)=O` gave a pKa of 7.2.
Work on `Cc1ncnc2c(O)cccc12` yielded a pKa of 8.75.
In the case of `N#CC(C#N)=C(C#N)Nc1ccc(Br)cc1`, the pKa is reported as 4.45.
In the case of `Cc1nc2c(=O)[nH]c(=O)[nH]c2n1C`, the pKa is reported as 6.2.
Compound `O=C(O)CC1[NH2+]Nc2ccccc21` (stereo not given) has a pKa of 2.9.
Work on `O=C(O)C12CC3CC(CC(C3)C1)C2` yielded a pKa of 4.95.
Compound `N#CC(C#N)C(C#N)C#N` has a pKa of 3.6.
`CCc1cc(CC)c(OC)c(C(=O)NC[C@H]2CCC[NH+]2CC)c1O` showed a pKa of 7.24.
`O=C([O-])c1ccc([N+](=O)[O-])cc1O` gave a pKa of 10.3.
For `CCC(CC)C1(CC)C(=O)NC(=S)NC1=O`, the pKa was 7.46.
Compound `Cn1cnc2[nH]c(=O)[nH]c(=O)c21` has a pKa of 8.45.
Compound `CCCS(=O)O` has a pKa of 2.35.
For `COc1ccc(C(=O)O[C@H]2O[C@@H](C(=O)O)[C@H](O)[C@@H](O)[C@@H]2O)cc1OC`, the pKa was 3.47.
Work on `CC(=N\O)/C(CO)=N/[O-]` yielded a pKa of 12.1.
Compound `Cc1cccc(C(=O)O)c1Br` has a pKa of 2.9.

Same assay, conditions: basic group
In the case of `Nc1ncccc1C(=O)[O-]`, the pKa is reported as 6.59.
Compound `NC(=O)CC(=O)c1ccccn1` has a pKa of 8.23.
`CC(C)N(CC1CO1)CC1CO1` (stereo not given) gave a pKa of 7.07.
Work on `CN1C[C@@H](CO)C[C@H]2c3cccc4[nH]cc(c34)C[C@@H]21` yielded a pKa of 8.3.
Compound `C[C@@H](CN)c1ccccc1` has a pKa of 9.94.
With `Cc1ccc(S(=O)(=O)[N-]CCC(=N)N(C)C)cc1` the pKa was 11.4.
Work on `CN[C@H]1C[C@@H]1NC` yielded a pKa of 8.73.
Compound `CCC1CN1` (stereo not given) has a pKa of 5.69.
`CC(O)CNCCO` (stereo not given) gave a pKa of 8.81.
`Cc1ccc2ccc(C)nc2c1` gave a pKa of 5.01.
With `Nc1nc(N)c2[nH]c(N)[nH+]c2n1` the pKa was 2.41.
Work on `Cc1cnnc2c(O)cccc12` yielded a pKa of 3.18.
In the case of `CCN(CC)NC`, the pKa is reported as 7.14.
For `Cc1cc(Cn2[nH+]c(C)cc2C)n[nH]1`, the pKa was 1.2.
For `Nc1ccc2ccnnc2c1`, the pKa was 4.85.
For `O=C([O-])[C@@H]1CCC[C@H](C(=O)[O-])N1`, the pKa was 9.92.
Work on `[NH3+]CCCCCc1cccnc1` yielded a pKa of 5.61.
`c1cnc2c(c1)ccc1c3c(cnc12)CCCC3` showed a pKa of 5.66.
Work on `CCC(O)CN(CC(O)CC)C(C)(C)C` (stereo not given) yielded a pKa of 9.6.
In the case of `Cc1ncnc2c(O)cccc12`, the pKa is reported as 2.9.
With `Nc1ccc2nc3ccccc3nc2c1` the pKa was 4.52.
For `CC1=CCCCN1C`, the pKa was 11.4.
With `Cc1cc(-c2cc(C)[nH+][nH]2)[nH]n1` the pKa was 0.4.
Compound `CN1CC=CC1c1cccnc1` (stereo not given) has a pKa of 7.04.
`CN1CCCC[C@H]1c1cccnc1` showed a pKa of 5.42.
With `C[n+]1c(NN)ccc2ccccc21` the pKa was 2.66.
In the case of `Cn1cnc2[nH]c(=O)[nH]c(=O)c21`, the pKa is reported as 0.87.
With `CN(CCC[NH+](C)C)CCC[NH+](C)C` the pKa was 6.4.
In the case of `CN(C(=O)c1ccccc1)c1cccnc1`, the pKa is reported as 3.66.
For `CN1C(C)(C)CCCC1(C)C`, the pKa was 11.2.
`c1nc(Cc2c[nH]c(Cc3nc(Cc4cnc[nH]4)c[nH]3)n2)c[nH]1` gave a pKa of 7.49.
For `CCOc1ccnc([O-])n1`, the pKa was 10.7.
`Cc1ccc(C(=N)c2ccccc2)c(C)c1` gave a pKa of 6.79.
In the case of `Cn1cnc(C(=O)[O-])c1C(=O)[O-]`, the pKa is reported as 8.
For `CCN(CC)CCO`, the pKa was 9.84.
Work on `CC1CN(C)CC[NH+]1C` (stereo not given) yielded a pKa of 3.93.

From the pKa sets of Baltruschat and Czodrowski (2020)
